Laboratory results as given in patent US20250099474A1 (priority 2022, published 2025).

Experiments:
[1] = Phase I clinical study Part 1, single administration, pharmacokinetics and safety; assay type: in vivo, human; conditions: phase 1 study
Procedure: Test Example 3-1 Phase I Clinical Study
All studies were conducted based on Good Clinical Practice (GCP). The phase I clinical study was composed of Part 1 to Part 7, and in Part 1, the safety, tolerability, and pharmacokinetics were confirmed when the fumaric acid cocrystal Form I crystal of the compound represented by Formula (I) was administered once and when it was administered repeatedly.
The subjects who were determined to be eligible by the screening examination were randomly assigned to either the active drug group (see the following table for the dose of the fumaric acid cocrystal Form I crystal of the compound represented by Formula (I)) or the placebo group on the day before the day of administration of the investigational new drug (Day −1). On Day 1, the investigational new drug (active drug or placebo) was administered once in the fasted state.

SARS-CoV-2 = test: Phase 2/3 study, Phase 2b Part: score of 12 COVID-19 symptoms per unit time; assay type: in vivo, human
Procedure: The primary endpoints of Phase 2b Part were the time-weighted average change in the total score of 12 COVID-19 symptoms per unit time from the start of the first administration (Day 1) to 120 hours (Day 6), and the change from baseline in SARS-CoV-2 virus titer on Day 4, in mild/moderate SARS-CoV-2-infected patients, and the clinical improvement and the antiviral effect of the active drug were confirmed.
The administration of the active drug is repeated oral administration once a day for 5 days. The 375/125 mg group received 375 mg on Day 1 as a loading dose and 125 mg on Days 2 to 5 as a maintenance dose. The 750/250 mg group received 750 mg on Day 1 as a loading dose and 250 mg on Days 2 to 5 as a maintenance dose.
The primary efficacy endpoints of Phase 2b Part for mild/moderate SARS-CoV-2-infected patients were the time-weighted average change in the total score of 12 COVID-19 symptoms per unit time from the start of the first administration (Day 1) to 120 hours (Day 6), and the change from baseline in SARS-CoV-2 virus titer on Day 4. The total score of 12 COVID-19 symptoms is the sum of the scores determined by evaluation in four grades (0: none, 1: mild, 2: moderate, 3: severe) in the subject daily records for each of the 12 COVID-19 symptoms (low energy and tiredness, muscle or body aches, headache, chills or shivering, feeling hot or feverish, stuffy and runny nose, sore throat, cough, shortness of breath (difficulty breathing), nausea, vomiting, diarrhea).
Pairwise comparison was performed between each active drug dose group and the placebo group. […] Pairwise comparison was performed between each active drug dose group and the placebo group.
The results of classifying the twelve COVID-19 symptoms shown in the above (2-a) into 5 types (acute symptoms, major clinical symptoms, respiratory symptoms, systemic symptoms, and gastrointestinal symptoms) and analyzing the same (ITT population) are shown in the following table. • Acute symptoms: sore throat, cough, feeling hot and feverish • Major clinical symptoms: stuffy and runny nose, sore throat, cough, chills or shivering, feeling hot or feverish • Respiratory symptoms: stuffy and runny nose, sore throat, cough, shortness of breath (difficulty breathing) • Systemic symptoms: low energy and tiredness, muscle or body aches, headache, chills or shivering, feeling hot or feverish • Gastrointestinal symptoms: nausea, vomiting, diarrhea

[2] = ITT population, 375/125 mg group
[3] = ITT population, 750/250 mg group

Cn1cnc(Cn2c(=O)[nH]/c(=N\c3cc4cn(C)nc4cc3Cl)n(Cc3cc(F)c(F)cc3F)c2=O)n1 [(6E)-6-[(6-chloro-2-methyl-2H-indazol-5-yl)imino]-3-[(1-methyl-1H-1,2,4-triazol-3-yl)methyl]-1-[(2,4,5-trifluorophenyl)methyl]-1,3,5-triazinane-2,4-dione]
serious adverse events [1]: no serious adverse events for which a causal relationship cannot be denied were reported | Respiratory symptoms sub-total score as compared with the placebo group (SARS-CoV-2; 375/125 mg group (p=0.0153) and 750/250 mg group (p=0.0032)): a significant improving effect was observed | Change up to 120 hours in total score of 12 COVID-19 symptoms per unit time as compared with the placebo group (SARS-CoV-2; 375/125 mg group and 750/250 mg group): a numerical decrease tendency was observed as compared with the placebo group, but a statistically significant difference was not observed | Change from baseline up to 120 hours in sub-total score per unit time, acute symptoms: Adjusted mean value by covariance analysis (standard error) (SARS-CoV-2; [2]): −2.36 (0.10) | Change from baseline up to 120 hours in sub-total score per unit time, acute symptoms: Difference of adjusted mean value from that of placebo group (standard error) (SARS-CoV-2; [2]): −0.20 (0.12) | Change from baseline up to 120 hours in sub-total score per unit time, acute symptoms: Maximum value (SARS-CoV-2; [2]): 0.45 | Change from baseline up to 120 hours in sub-total score per unit time, acute symptoms: Mean value (SARS-CoV-2; [2]): −2.52 | Change from baseline up to 120 hours in sub-total score per unit time, acute symptoms: Median value (SARS-CoV-2; [2]): −2.55 | Change from baseline up to 120 hours in sub-total score per unit time, acute symptoms: Minimum value (SARS-CoV-2; [2]): −6.19 | Change from baseline up to 120 hours in sub-total score per unit time, gastrointestinal symptoms: Adjusted mean value by covariance analysis (standard error) (SARS-CoV-2; [2]): −1.27 (0.14) | Change from baseline up to 120 hours in sub-total score per unit time, gastrointestinal symptoms: Difference of adjusted mean value from that of placebo group (standard error) (SARS-CoV-2; [2]): 0.06 (0.18) | Change from baseline up to 120 hours in sub-total score per unit time, gastrointestinal symptoms: Maximum value (SARS-CoV-2; [2]): −0.16 | Change from baseline up to 120 hours in sub-total score per unit time, gastrointestinal symptoms: Mean value (SARS-CoV-2; [2]): −1.39 | Change from baseline up to 120 hours in sub-total score per unit time, gastrointestinal symptoms: Median value (SARS-CoV-2; [2]): −0.99 | Change from baseline up to 120 hours in sub-total score per unit time, gastrointestinal symptoms: Minimum value (SARS-CoV-2; [2]): −5.80 | Change from baseline up to 120 hours in sub-total score per unit time, major clinical symptoms: Adjusted mean value by covariance analysis (standard error) (SARS-CoV-2; [2]): −3.34 (0.14) | Change from baseline up to 120 hours in sub-total score per unit time, major clinical symptoms: Difference of adjusted mean value from that of placebo group (standard error) (SARS-CoV-2; [2]): −0.34 (0.17) | Change from baseline up to 120 hours in sub-total score per unit time, major clinical symptoms: Maximum value (SARS-CoV-2; [2]): 0.55 | Change from baseline up to 120 hours in sub-total score per unit time, major clinical symptoms: Mean value (SARS-CoV-2; [2]): −3.56 | Change from baseline up to 120 hours in sub-total score per unit time, major clinical symptoms: Median value (SARS-CoV-2; [2]): −3.33 | Change from baseline up to 120 hours in sub-total score per unit time, major clinical symptoms: Minimum value (SARS-CoV-2; [2]): −9.76 | Change from baseline up to 120 hours in sub-total score per unit time, respiratory symptoms: Adjusted mean value by covariance analysis (standard error) (SARS-CoV-2; [2]): −2.09 (0.12) | Change from baseline up to 120 hours in sub-total score per unit time, respiratory symptoms: Difference of adjusted mean value from that of placebo group (standard error) (SARS-CoV-2; [2]): −0.37 (0.15) | Change from baseline up to 120 hours in sub-total score per unit time, respiratory symptoms: Maximum value (SARS-CoV-2; [2]): 1.30 | Change from baseline up to 120 hours in sub-total score per unit time, respiratory symptoms: Mean value (SARS-CoV-2; [2]): −2.28 | Change from baseline up to 120 hours in sub-total score per unit time, respiratory symptoms: Median value (SARS-CoV-2; [2]): −1.99 | Change from baseline up to 120 hours in sub-total score per unit time, respiratory symptoms: Minimum value (SARS-CoV-2; [2]): −6.44 | Change from baseline up to 120 hours in sub-total score per unit time, systemic symptoms: Adjusted mean value by covariance analysis (standard error) (SARS-CoV-2; [2]): −3.31 (0.14) | Change from baseline up to 120 hours in sub-total score per unit time, systemic symptoms: Difference of adjusted mean value from that of placebo group (standard error) (SARS-CoV-2; [2]): 0.15 (0.18) | Change from baseline up to 120 hours in sub-total score per unit time, systemic symptoms: Maximum value (SARS-CoV-2; [2]): 1.80 | Change from baseline up to 120 hours in sub-total score per unit time, systemic symptoms: Mean value (SARS-CoV-2; [2]): −3.71 | Change from baseline up to 120 hours in sub-total score per unit time, systemic symptoms: Median value (SARS-CoV-2; [2]): −3.18 | Change from baseline up to 120 hours in sub-total score per unit time, systemic symptoms: Minimum value (SARS-CoV-2; [2]): −14.30 | Change from baseline up to 120 hours in sub-total score per unit time, acute symptoms: Adjusted mean value by covariance analysis (standard error) (SARS-CoV-2; [3]): −2.50 (0.10) | Change from baseline up to 120 hours in sub-total score per unit time, acute symptoms: Difference of adjusted mean value from that of placebo group (standard error) (SARS-CoV-2; [3]): −0.33 (0.12) | Change from baseline up to 120 hours in sub-total score per unit time, acute symptoms: Maximum value (SARS-CoV-2; [3]): 0.52 | Change from baseline up to 120 hours in sub-total score per unit time, acute symptoms: Mean value (SARS-CoV-2; [3]): −2.63
